Measurements taken from US12590063B2, “Phenol derivative” (Sumitomo Pharma Co., Ltd., priority 2020, dated 2026).
Counter-ions that a name gives are not always drawn. Marks after values point to notes of the source that are not given here.

Columns and labels:
normal rats [1] = assay: Evaluation of effect of increasing swallowing in normal rats; format: in vivo, rat; conditions: anesthetized normal rats
Experimental: Test Example 5: Evaluation of Effect of Increasing Swallowing in Normal Rats
This test is for evaluating the effect of increasing swallowing function of drugs. It has been reported that induction of the swallowing reflex in normal rats using NaCl-containing water suppresses the number of swallows, and the increase in swallowing function was evaluated using a NaCl-containing solvent. After the induction of anesthesia in Crl:CD(SD) male rats (7 to 8 rats per group, 8 to 9 weeks old, body weight 280 to 310 g: at the time of arrival), the animals were sheared under the jaw with clippers and held in a supine position on a heat pad kept at 37° C. to prevent limb movement. A rat sonde was inserted into the animals' mouths, and the tip of the sonde was retained in the pharynx. Under this condition, the test substance administration solution was administered at 12 ml/h for 10 seconds using an infusion pump, and the swallowing movements were measured for 30 seconds from the initiation of administration. Note that the vehicle used was saline solution containing 1% ethanol and 0.1% Tween 80.

normal rats [2] = assay: Desensitization of effect of increasing swallowing in normal rats; format: in vivo, rat; conditions: for number of swallows, Average, First time: 1st of five administrations about 5 minutes apart; for number of swallows, Average, Second time: 2nd of five administrations about 5 minutes apart; for number of swallows, Average, Third time: 3rd of five administrations about 5 minutes apart; for number of swallows, Average, Fourth time: 4th of five administrations about 5 minutes apart; for number of swallows, Average, Fifth time: 5th of five administrations about 5 minutes apart
Description: Test Example 6: Evaluation with Respect to Desensitization of Effect of Increasing Swallowing in Normal Rats
TRPV1 agonists are known to induce TRPV1 desensitization when given at high doses or repeatedly. Using the same method as in Test Example 5, the effect of drugs on normal swallowing function in rats to induce desensitization was investigated. After the induction of anesthesia in Crl:CD(SD) male rats (7 to 8 rats per group, 8 to 9 weeks old, body weight 280 to 310 g: at the time of arrival), the animals were sheared under the jaw with clippers and held in a supine position on a heat pad kept at 37° C. to prevent limb movement. A sonde was inserted into the animals' mouths, and the tip of the sonde was retained in the pharynx. Under this condition, the test substance administration solution was administered at 12 ml/h for 10 seconds using an infusion pump, and the swallowing movements were measured for 30 seconds from the initiation of administration. Thereafter, the same test was performed about 5 minutes later, and the evaluation was repeated for a total of five times. Note that the vehicle used was saline solution containing 1% ethanol and 0.1% Tween 80.

normal rats [3] = assay: Test for eye stimulatory properties in normal rats; format: in vivo, rat; conditions: rat, in vivo
Experimental: Test Example 7: Evaluation with Respect to Test for Eye Stimulatory Properties in Normal Rats
It has been reported that TRPV1 agonists have stimulatory properties and that administration of TRPV1 agonist solutions to the eye can induce wiping behavior. The stimulatory properties of the compounds were investigated using normal rats. Crl:CD(SD) male rats (5 rats per group, 8 weeks old, body weight 271 to 320 g) were held unanesthetized and 10 μL was dropped into the right eye using a micropipette.

Human TRPV1 = molecular target: T1, Human TRPV1 (Homo sapiens, UniProt Q8NER1); assay: Evaluation of agonistic properties using human TRPV1 transiently expressing cells; format: cell-based; conditions: for EC50: HEK293 cells transiently expressing human TRPV1 and apoaequorin, luminescence signal Rlu (Max-Min), read-out: TRPV1 EC50; for TRPV-1-agonistic activity (in words): evaluation test for TRPV-1-agonistic properties, summary of Tables 3 and 4
T1 construct: the TRPV1 gene (GenBank NP_542435.2) had been inserted; expressed in transfected cells; host or cells: HEK293 cells (cat #CCL-82.2, ATCC), transient transfection with pcDNA3.1
T1 sequence (Q8NER1 whole entry): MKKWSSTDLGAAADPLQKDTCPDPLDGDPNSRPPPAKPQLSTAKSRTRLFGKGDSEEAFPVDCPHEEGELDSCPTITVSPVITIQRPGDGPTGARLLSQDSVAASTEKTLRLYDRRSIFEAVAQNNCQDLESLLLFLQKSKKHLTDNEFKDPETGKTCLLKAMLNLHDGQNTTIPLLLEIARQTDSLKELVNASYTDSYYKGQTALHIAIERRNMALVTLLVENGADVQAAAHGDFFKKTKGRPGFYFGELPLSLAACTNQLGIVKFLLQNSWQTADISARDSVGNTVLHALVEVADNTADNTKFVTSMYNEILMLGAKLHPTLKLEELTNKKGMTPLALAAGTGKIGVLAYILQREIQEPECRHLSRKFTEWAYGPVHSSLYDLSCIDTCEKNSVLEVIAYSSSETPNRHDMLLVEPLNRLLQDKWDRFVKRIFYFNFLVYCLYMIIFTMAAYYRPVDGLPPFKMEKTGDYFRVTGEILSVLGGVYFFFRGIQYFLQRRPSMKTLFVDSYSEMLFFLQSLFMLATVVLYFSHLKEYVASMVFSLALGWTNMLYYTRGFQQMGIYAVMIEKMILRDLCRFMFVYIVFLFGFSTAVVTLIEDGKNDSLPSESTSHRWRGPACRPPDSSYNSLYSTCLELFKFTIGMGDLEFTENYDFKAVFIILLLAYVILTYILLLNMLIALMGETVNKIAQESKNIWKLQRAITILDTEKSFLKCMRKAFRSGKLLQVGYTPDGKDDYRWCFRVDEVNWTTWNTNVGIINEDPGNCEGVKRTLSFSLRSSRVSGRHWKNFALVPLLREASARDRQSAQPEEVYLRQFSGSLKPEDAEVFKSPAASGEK
Description: Test Example 1: Evaluation of Agonistic Properties Using Human TRPV1 Transiently Expressing Cells
(1) Generation of Human TRPV1 Transiently Expressing Cells
Human TRPV1 transiently expressing cells were generated and subjected to culture. Specifically, HEK293 cells (cat #CCL-82.2, ATCC) were used as host cells. Human TRPV1 and apoaequorin were transiently expressed by introducing the mammalian cell expression pcDNA3.1 vector (cat #v790-20, Invitrogen) into which the TRPV1 gene (GenBank NP_542435.2) had been inserted.
The Dulbecco's Modified Eagle's Medium (DMEM) medium (cat #11550-043, Thermo Fisher Scientific) containing 10% inactivated fetal bovine serum (cat #10270-106, Thermo Fisher Scientific) was used as the medium, and the culture was carried out in tissue culture dishes (cat #3020-100, Iwaki). During the culture, cells were collected every 2 to 3 days by treating with PBS containing 10% 2.5 g/1-trypsin/[…] solution, phenol red (cat #32777-44, Nacalai Tesque), and passage culture was carried out.
Three days after the passage, cells were collected with 10% trypsin-PBS treatment at a state of about 80% confluency, suspended in a DMEM medium containing 10% fetal bovine serum to 4000 cells/35 μl/well, and seeded into 384-well plates (cat #353962, FALCON).
The day after seeding, Viviren (cat #E6492, Promega) was added (15 μl/well) to a final concentration of 4.5 μM/HBSS (cat #14065-056, Thermo Fisher Scientific)/90 mM HEPES (cat #17514-15, Nacalai Tesque)/0.1% BSA (cat #01281-84, Nacalai Tesque), and after centrifugation, the samples were allowed to stand at room temperature for 2 hours under light-shielded conditions.
(2) Preparation of Test Compounds
For the test compounds, dimethyl sulfoxide solutions were produced at a concentration 1000 times the final concentration, and from these solutions, solutions at concentration 10 times the final concentration were prepared with Hanks/20 mmol/L HEPES/0.10% BSA (cat #01281-84, Nacalai Tesque).
(3) Evaluation of TRPV1-Agonistic Properties
FDSS7000 (Hamamatsu Photonics K.K.) was used for detection of TRPV1 agonist-stimulated luminescence signals. The test compounds were added to plates to which the cells and luminescent substrates had been added. The luminescence signals (center wavelength: 465 nm) after addition of the test compounds were measured, and the Rlu (Max−Min) was calculated.

Crl:CD(SD) rats = assay: Evaluation of taste aversion by drinking water; format: in vivo, rat; conditions: two-bottle choice, overnight
Experimental: Test Example 3: Evaluation of Taste Aversion by Drinking Water
This test is for evaluating the taste aversion of drugs. The test was carried out by, while keeping Crl:CD(SD) rats (8 rats per group, 8 weeks old at the time of arrival) in home cages, adding the test substance solutions to water bottles. Two water bottles per cage were prepared, each filled with vehicle (sterile water containing 0.05% ethanol) and the test substance solution, and kept overnight, and the amount of water consumed during that period was measured. The proportion of water consumed with the test substance was calculated from the total amount of water consumed from the two water bottles, and the evaluation of taste aversion was carried out. It can be evaluated that the larger the proportion of water consumed with the test substance, the smaller the taste aversion and the smaller the stimulatory properties caused by the test substance.

[4] = Evaluation test for metabolic stability to S9; format: in vitro ADME; conditions: liver S9 fraction, 37° C., 15 minutes, final compound concentration 10 nM
Experimental: Test Example 4: Evaluation Test for Metabolic Stability to S9
The compounds were added to a reaction solution in which the liver S9 fraction was diluted with phosphate buffer, and incubation was initiated at 37° C. (final compound concentration 10 nM, final volume 300 μL). After incubation for 15 minutes, the reaction was stopped by adding the reaction solution to acetonitrile, and centrifugation was carried out. After filtering the supernatant through a filter, the amount of compounds was determined using LC/MS/MS. From the amount of compounds obtained, the residual rate 15 minutes after the initiation of the reaction was calculated relative to the amount of compounds before the initiation of the reaction (0 minutes).

EC50 (Human TRPV1) [nM] | TRPV-1-agonistic activity (in words) (Human TRPV1) | Residual rate (%) [4] [%] | Compound | other results
– | – | – | COc1cc(CC(=O)Nc2ccnc(-c3cccc(OC(=O)C(C)C)c3)c2)ccc1O [Example 49, 3-{4-[2-(4-Hydroxy-3-methoxyphenyl)acetamido]pyridin-2-yl}phenyl 2-methylpropanoate hydrochloride] | number of swallowings compared to the solvent administered group (Dunnett's test) (normal rats [1]): significantly increased; number of swallowings, Average (normal rats [1]; pharyngeal infusion 12 ml/h for 10 seconds, counted for 30 seconds): 15.0*; number of swallows, Average, First time (normal rats [2]; 10 μM): 12.3; number of swallows, Average, Second time (normal rats [2]; 10 μM): 12.4; number of swallows, Average, Third time (normal rats [2]; 10 μM): 12.9; number of swallows, Average, Fourth time (normal rats [2]; 10 μM): 11.3; number of swallows, Average, Fifth time (normal rats [2]; 10 μM): 14.4; number of swallows, Average, First time (normal rats [2]; 30 μM): 17.1; number of swallows, Average, Second time (normal rats [2]; 30 μM): 13.9; number of swallows, Average, Third time (normal rats [2]; 30 μM): 14.1; number of swallows, Average, Fourth time (normal rats [2]; 30 μM): 12.4; number of swallows, Average, Fifth time (normal rats [2]; 30 μM): 12.7; number of swallows at repeated administrations compared to the 1st administration (Dunnett's test) (normal rats [2]; five administrations about 5 minutes apart): no significant difference; number of wiping behaviors versus control (Dunnett's test) (normal rats [3]): no significant difference
2.3 | stronger TRPV-1-agonistic activity | <1 | COc1cc(CC(=O)Nc2ccnc(-c3cccc(OC(=O)C(C)C)c3)c2)ccc1O [Example 26, 3-{4-[2-(4-hydroxy-3-methoxyphenyl)acetamido]pyridin-2-yl}phenyl 2-methylpropanoate] | proportion of water consumed with the test substance (% Vehicle) (Crl:CD(SD) rats; 1 μM in drinking water): 113 % Vehicle; proportion of water consumed with the test substance (% Vehicle) (Crl:CD(SD) rats; 3 μM in drinking water): 86 % Vehicle; proportion of water consumed with the test substance (% Vehicle) (Crl:CD(SD) rats; 10 μM in drinking water): 55 % Vehicle
35.1 | – | <1 | COc1cc(CC(=O)Nc2cc(-c3cccc(OC(=O)C(C)C)c3)ccc2OC)ccc1O [Example 20, 3′-[2-(4-hydroxy-3-methoxyphenyl)acetamido]-4′-methoxy[1,1′-biphenyl]-3-yl 2-methylpropanoate] | –
38 | – | <1 | COc1cc(CC(=O)Nc2cc(-c3cccc(OC(=O)C(C)C)c3)ccn2)ccc1O [Example 25, 3-{2-[2-(4-hydroxy-3-methoxyphenyl)acetamido]pyridin-4-yl}phenyl 2-methylpropanoate] | –
341 | – | <1 | COc1cc(CC(=O)Nc2cccc(-c3ccc(OC(=O)c4ccccc4)cc3)c2)ccc1O [Example 3, 3′-[2-(4-hydroxy-3-methoxyphenyl)acetamido][1,1′-biphenyl]-4-yl benzoate] | –
5.6 | – | 100 | COc1cc(CC(=O)Nc2cccc([C@H]3CC[C@@H](OC(=O)Cc4cc(F)cc(F)c4)CC3)c2)ccc1O [Example 7, cis-4-{3-[2-(4-hydroxy-3-methoxyphenyl)acetamido]phenyl}cyclohexyl (3,5-difluorophenyl)acetate] | –
3.9 | stronger TRPV-1-agonistic activity | <1 | COc1cc(CC(=O)Nc2cccc(-c3cccc(OC(=O)C(C)C)c3)c2)ccc1O [Example 24, 3′-[2-(4-hydroxy-3-methoxyphenyl)acetamido][1,1′-biphenyl]-3-yl 2-methylpropanoate] | –
4.6 | stronger TRPV-1-agonistic activity | 69 | COc1cc(CC(=O)Nc2cccc([C@H]3CC[C@@H](OC(=O)Cc4ccccc4F)CC3)c2)ccc1O [Example 15, cis-4-{3-[2-(4-hydroxy-3-methoxyphenyl)acetamido]phenyl}cyclohexyl (2-fluorophenyl)acetate] | –
11.6 | – | 2 | COc1cc(CC(=O)Nc2cccc(-c3cccc(OC(=O)CC4CCCCC4)c3)n2)ccc1O [Example 32, 3-{6-[2-(4-hydroxy-3-methoxyphenyl)acetamido]pyridin-2-yl}phenyl cyclohexylacetate] | –
4.3 | stronger TRPV-1-agonistic activity | <1 | COc1cc(CNC(=O)c2ccnc(-c3cccc(OC(=O)C(C)C)c3)c2)ccc1O [Example 46, 3-(4-{[(4-hydroxy-3-methoxyphenyl)methyl]carbamoyl}pyridin-2-yl)phenyl 2-methylpropanoate] | –
61.2 | – | 90 | COc1cc(CC(=O)Nc2cccc([C@H]3CC[C@@H](OC(=O)CC4CCCCC4)CC3)c2)ccc1O [Example 5, cis-4-{3-[2-(4-hydroxy-3-methoxyphenyl)acetamido]phenyl}cyclohexyl cyclohexylacetate] | –
